The results in this text go back to patent US20100063065A1 (Inpharmatica Limited, priority 2005, published 2010).

Counter-ions that a name gives are not always drawn. A value given as a limit tells only on which side of the number the result lay.

The target in one assay is T1, PPARδ (Homo sapiens, UniProt Q03181).
T1 construct: fused to amino acids 147-441 of PPARδ downstream of CMV promoter; expressed in transfected cells; host or cells: HEK293 cells, transiently transfected with pFACMV-PPARδ using Fugene
T1 sequence (Q03181 147-441): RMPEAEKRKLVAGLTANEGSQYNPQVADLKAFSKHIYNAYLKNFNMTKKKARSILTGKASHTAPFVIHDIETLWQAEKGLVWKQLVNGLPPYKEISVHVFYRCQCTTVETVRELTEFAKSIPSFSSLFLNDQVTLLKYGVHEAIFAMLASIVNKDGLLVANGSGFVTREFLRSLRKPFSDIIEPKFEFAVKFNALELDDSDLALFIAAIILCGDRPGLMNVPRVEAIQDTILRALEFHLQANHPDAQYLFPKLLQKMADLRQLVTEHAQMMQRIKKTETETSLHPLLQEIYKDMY
Nature of the assay: Transactivation assay (PPARδ GAL4 assay) in transiently transfected HEK293 cells. Particulars: luciferase reporter, Table 1. Type of assay: cell-based. The protocol:
Compounds were screened for their functional potency in transiently transfected HEK293 cells for their ability to activate PPAR subtypes. Cells were cultured in DMEM (Invitrogen) supplemented with 10% foetal calf serum, glutamine, penicillin and streptomycin and plated at 10 000 cells/well of a 96-well solid white plate and incubated at 37° C./5% CO2 for 24 hours. Media was removed and the cells washed with PBS. Cells were then transiently transfected using Fugene (Roche) with 50 ng pFACMV-PPARδ (plasmid encoding amino acids 1-147 of the GAL4 DNA binding domain, fused to amino acids 147-441 of PPARδ downstream of CMV promoter) and 250 ng pFR-Luc (reporter plasmid containing 5×GAL4 response elements upstream of a luciferase gene), using a ratio of 3:1 Fugene:DNA. 100 μl of this transfection mixture in DMEM (without foetal calf serum) was added to each well, and the incubation continued for a further 24 hours. The cells are then again washed with PBS prior to the addition of 100 μl reduced serum medium (OptiMEM; Invitrogen). Compounds were added (10 μl in 2% DMSO in OptiMEM) to achieve final concentrations between 0-30 μM. The cells were then returned to the incubator for a further 24 hours. 100 μl of luciferase reagent (Bright Glo, Promega) was added directly to each well, and the luminescence determined using a suitable luminometer.
To measure the selectivity of compounds, their ability to transactivate GAL4 fusions of PPARα LBD and PPARγ LBD was determined. The activity of compounds was expressed as a percentage relative to control compounds: PPARγ rosiglitazone (BRL 49653), PPARδ GW501516 (11) or PPARα KCL1999000269 (12). EC50 values were calculated by fitting of the data to a sigmoidal dose response curve.
(A reporter such as luciferase makes a cellular process visible.)
One may read the EC50 as the concentration at which the effect is half-maximal. With `CCc1cc(C(=O)c2cccc(OC)c2)c(NC(=O)CSCC(=O)O)s1` [Example 48, {[5-Ethyl-3-(3-methoxybenzoyl)-thiophen-2-ylcarbamoyl]-methylsulfanyl}-acetic acid], the EC50 lay in the range of 1000 to 30000 nM. Same read-out and setting: the same measure for `CC(C)(NCC(=O)Nc1sc(Cl)cc1C(=O)c1ccc(OC(F)(F)F)cc1)C(=O)O` [Example 86, 2-({[5-Chloro-3-(4-trifluoromethoxy-benzoyl)-thiophen-2-ylcarbamoyl]-methyl}-amino)-2-methyl-propionic acid]: 100 to 1000 nM; for `COc1ccc(C(=O)c2ccsc2NC(=O)CSCC(=O)O)cc1` [Example 68, {[3-(4-Methoxy-benzoyl)-thiophen-2-ylcarbamoyl]-methylsulfanyl}-acetic acid]: 1000 to 30000 nM. `CCc1cc(C(=O)c2ccc(Oc3ccccc3)nc2)c(NC(=O)CSCC(=O)O)s1` [Example 60, {[5-Ethyl-3-(6-phenoxy-pyridine-3-carbonyl)-thiophen-2-ylcarbamoyl]-methylsulfanyl}-acetic acid] returned a half-maximal effective concentration (EC50) of 1000 to 30000 nM.

On to `CCc1cc(C(=O)c2cccc3ccccc23)c(NC(=O)CSCC(=O)O)s1` [Example 46, {[5-Ethyl-3-(naphthalene-1-carbonyl)-thiophen-2-ylcarbamoyl]-methylsulfanyl}-acetic acid], for which the EC50 was in the range of 1000 to 30000 nM. Same read-out and setting: the figure for `CCc1cc(C(=O)c2ccc(-c3cncnc3)cc2)c(NC(=O)CSCC(=O)O)s1` [Example 41, {[5-Ethyl-3-(4-pyrimidin-5-yl-benzoyl)-thiophen-2-ylcarbamoyl]-methylsulfanyl}-acetic acid] is 1000 to 30000 nM; for `CCc1cc(C(=O)c2ccc(OC(F)(F)F)cc2)c(NC(=O)CN[C@@H](C(=O)O)C(C)C)s1` (single isomer, unassigned) [Example 75, 2-({[5-Ethyl-3-(4-trifluoromethoxy-benzoyl)-thiophen-2-ylcarbamoyl]-methyl}-amino)-3-methyl-butyric acid] it is < 100 nM. Same read-out and setting: the same measure for `CCc1ccc(C(=O)c2cc(CC)sc2NC(=O)CSC(C)(C)C(=O)O)cc1` [Example 10, 2-{[5-Ethyl-3-(4-ethyl-benzoyl)-thiophen-2-ylcarbamoyl]-methylsulfanyl}-2-methyl-propionic acid]: 100 to 1000 nM; for `CCc1cc(C(=O)c2ccc(OC(F)(F)F)cc2)c(NC(=O)CN[C@@H](C(=O)O)C(C)C)s1` [Example 78, (R)-2-({[5-Ethyl-3-(4-trifluoromethoxy-benzoyl)-thiophen-2-ylcarbamoyl]-methyl}-amino)-3-methyl-butyric acid]: 1000 to 30000 nM. For the compound `CCc1cc(C(=O)c2ccc(OC)cc2)c(NC(=O)CCCCC(=O)O)s1` [Example 69, 5-[5-Ethyl-3-(4-methoxy-benzoyl)-thiophen-2-ylcarbamoyl]-pentanoic acid], the 50% effective concentration (EC50) lay within 1000 to 30000 nM. Same read-out and setting: the same measure for `CCc1cc(C(=O)c2ccc(Cl)c(Cl)c2)c(NC(=O)CSCC(=O)O)s1` [Example 28, {[3-(3,4-Dichloro-benzoyl)-5-ethyl-thiophen-2-ylcarbamoyl]-methylsulfanyl}-acetic acid]: < 100 nM.

As to `CCc1cc(C(=O)c2ccc(OC(F)(F)F)cc2)c(NC(=O)CNC(CC)C(=O)O)s1` (centres unmarked) [Example 80, 2-({[5-Ethyl-3-(4-trifluoromethoxy-benzoyl)-thiophen-2-ylcarbamoyl]-methyl}-amino)-butyric acid], the EC50 is < 100 nM. The same measure, in the same setting: the figure for `CCc1cc(C(=O)c2ccc(OC)c(OC)c2)c(NC(=O)CSCC(=O)O)s1` [Example 49, {[3-(3,4-Dimethoxybenzoyl)-5-ethyl-thiophen-2-ylcarbamoyl]-methylsulfanyl}-acetic acid] is 1000 to 30000 nM.

For the compound `CCc1ccc(C(=O)c2cc(CC)sc2NC(=O)CSCC(=O)O)cc1` [Example 9, {[5-Ethyl-3-(4-ethyl-benzoyl)-thiophen-2-ylcarbamoyl]-methylsulfanyl}-acetic acid], the EC50 lay within 100 to 1000 nM. Take `CCc1cc(C(=O)c2ccc(OC(C)C)cc2)c(NC(=O)CSCC(=O)O)s1` [Example 33, {[5-Ethyl-3-(4-isopropoxy-benzoyl)-thiophen-2-ylcarbamoyl]-methylsulfanyl}-acetic acid]: the EC50 lay within 100 to 1000 nM.

`CCc1cc(C(=O)c2cnc(OC(C)C)c(Cl)c2)c(NC(=O)CSCC(=O)O)s1` [Example 59, {[3-(5-Chloro-6-isopropoxy-pyridine-3-carbonyl)-5-ethyl-thiophen-2-ylcarbamoyl]-methylsulfanyl}-acetic acid] returned an EC50 of 100 to 1000 nM. Turning to `CCc1cc(C(=O)c2ccc(C)c(C)c2)c(NC(=O)CSCC(=O)O)s1` [Example 51, {[3-(3,4-Dimethyl-benzoyl)-5-ethyl-thiophen-2-ylcarbamoyl]-methylsulfanyl}-acetic acid], the half-maximal effective concentration (EC50) was in the range of 1000 to 30000 nM.

Still in this assay, the particulars now being: luciferase reporter, Table 2.
Regarding `CCc1cc(C(=O)c2ccc(OC(F)(F)F)cc2)c(NC(=O)C(NCC(=O)O)c2ccccc2)s1` (centres unmarked) [Example 122, ({[5-Ethyl-3-(4-trifluoromethoxy-benzoyl)-thiophen-2-ylcarbamoyl]-phenyl-methyl}-amino)-acetic acid], the half-maximal effective concentration (EC50) was in the range of 100 to 1000 nM. On the same count and under the same terms, the same measure for `CCc1cc(C(=O)c2ccc(OC(F)(F)F)cc2)c(NC(=O)CC(C)CC(=O)O)s1` (centres unmarked) [Example 174, 4-[5-Ethyl-3-(4-trifluoromethoxy-benzoyl)-thiophen-2-ylcarbamoyl]-3-methyl-butyric acid]: < 100 nM. The same measure, in the same setting: the figure for `CCc1cc(C(=O)c2ccc(Cl)cc2)c(NC(=O)CSc2ccc(OC(C)(C)C(=O)O)cc2)s1` [Example 138, 2-(4-{[3-(4-Chloro-benzoyl)-5-ethyl-thiophen-2-ylcarbamoyl]-methylsulfanyl}-phenoxy)-2-methyl-propionic acid] is 100 to 1000 nM. Still for that read-out and setting: the same measure for `O=C(CN1[C@@H](C(=O)O)CC[C@@H]1c1ccccc1)Nc1sc(Cl)cc1C(=O)c1ccc(OC(F)(F)F)cc1` [Example 188, (2R,5R)-1-{[5-Chloro-3-(4-trifluoromethoxy-benzoyl)-thiophen-2-ylcarbamoyl]-methyl}-5-phenyl-pyrrolidine-2-carboxylic acid hydrochloride]: < 100 nM; for `CCc1cc(C(=O)c2ccc(OC(F)(F)F)cc2)c(NC(=O)COc2ccc(OCC(=O)O)cc2)s1` [Example 117, (4-{[5-Ethyl-3-(4-trifluoromethoxy-benzoyl)-thiophen-2-ylcarbamoyl]-methoxy}-phenoxy)-acetic acid]: 1000 to 30000 nM; for `CCc1cc(C(=O)c2ccc(OC(F)(F)F)cc2)c(NC(=O)C(C)N2[C@@H](C(=O)O)CC[C@@H]2C)s1` (stereo partly drawn) [Example 186, (2R,5S)-1-{1-[5-Ethyl-3-(4-trifluoromethoxy-benzoyl)-thiophen-2-ylcarbamoyl]-ethyl}-5-methyl-pyrrolidine-2-carboxylic acid]: < 100 nM.

In the case of `CCc1cc(C(=O)c2ccc(OC(F)(F)F)cc2)c(NC(=O)C(C)(C)SCC(=O)O)s1` [Example 107, {1-[5-Ethyl-3-(4-trifluoromethoxy-benzoyl)-thiophen-2-ylcarbamoyl]-1-methyl-ethylsulfanyl}-acetic acid], the half-maximal effective concentration (EC50) lay within 100 to 1000 nM. The same measure, in the same setting: the same measure for `CCc1cc(C(=O)c2ccc(OC(F)(F)F)cc2)c(NC(=O)CSC(CC)C(=O)O)s1` (centres unmarked) [Example 127, 2-{[5-Ethyl-3-(4-trifluoromethoxy-benzoyl)-thiophen-2-ylcarbamoyl]-methylsulfanyl}-butyric acid]: < 100 nM; for `CCc1cc(C(=O)c2ccc(OC(F)(F)F)cc2)c(NC(=O)CNC2(C(=O)O)CCC2)s1` [Example 164, 1-({[5-Ethyl-3-(4-trifluoromethoxy-benzoyl)-thiophen-2-ylcarbamoyl]-methyl}-amino)-cyclobutanecarboxylic acid]: < 100 nM. The same measure, in the same setting: the figure for `CCc1cc(C(=O)c2ccc(OC(F)(F)F)cc2)c(NC(=O)C(C)(C)NCC(=O)O)s1` [Example 118, {1-[5-Ethyl-3-(4-trifluoromethoxy-benzoyl)-thiophen-2-ylcarbamoyl]-1-methyl-ethylamino}-acetic acid] is 100 to 1000 nM; for `CCc1cc(C(=O)c2ccc(OC(F)(F)F)cc2)c(NC(=O)C(c2ccccc2)N2CCC[C@@H]2C(=O)O)s1` (stereo partly drawn) [Example 124, (R)-1-{[5-Ethyl-3-(4-trifluoromethoxy-benzoyl)-thiophen-2-ylcarbamoyl]-phenyl-methyl}-pyrrolidine-2-carboxylic acid] it is 100 to 1000 nM.

In the case of `CCc1cc(C(=O)c2ccc(OC(F)(F)F)cc2)c(NC(=O)CN(C)C2(C(=O)O)CC2)s1` [Example 197, 1-({[5-Ethyl-3-(4-trifluoromethoxy-benzoyl)-thiophen-2-ylcarbamoyl]-methyl}-methyl-amino)-cyclopropanecarboxylic acid], the 50% effective concentration (EC50) was 100 to 1000 nM.
